Data published in patent publication US20230332197A1, “NUCLEOSIDES AND NUCLEOTIDES WITH 3' VINYL BLOCKING GROUP” (Illumina Singapore Pte. Ltd., priority 2022, published 2023).

Key:
[1] = Preliminary deblocking test of 3′ vinyl group with tetrazine reagent, HPLC UV absorption at 280 nm; assay type: physicochemical; details: 50 μM substrate, 5 mM methyltetrazine propylamine HCl, 0 to 60 Secs
Method: 50 μM of 3′ vinyl thymidine monophosphate (TMP) was deblocked in the presence of 5 mM of methyltetrazine propylamine HCl.

Pol 1558 = experiment: Template-dependent incorporation of nucleotide into primer strand by DNA polymerase, gel electrophoresis; assay type: biochemical, 9° N; details: Pol 1558 0.12 mg/mL, Mg2+ approximately 4 mM, 60° C. for 10 minutes
Source text: (§1) In this incorporation experiment, several DNA polymerases were used to test the feasibility of incorporating a 3′vinyl dTTP into a primer strand through template-dependent synthesis. For each test, 3′vinyl dTTP or an unblocked dTTP was exposed to one polymerase in the presence of a template strand having five A nucleotides overhang at the 5′ end, and the complementary primer strand has a fluorescent tag (FAM) at the 5′ end for visualization purposes. The DNA polymerases tested were Pol 812, Pol 963, Pol 1558, and Pol 1901, each at 0.12 mg/mL. The amino acid sequences of these mutants of 9° N polymerases are disclosed, for example, in U.S. Patent Publication Nos. 2020/0131484 A1 and 2020/0181587 A1, both of which are incorporated by reference herein in their entireties. The nucleotides include a 3′vinyl dTTP
(§2) The negative control nucleotide included a vinyl blocking group attached to the nitrogen atom of the T base typically involved in base-pair binding. Thus, it was expected that the negative control nucleotide would not be able to bind with the available adenosine bases of the template strand. The unaltered dTTP, on the other hand, was expected to be incorporated into the primer strand and could therefore act as a control for 5 incorporations.
(§3) For each test reaction, Mg^2+ concentration was at approximately 4 mM, while the polymerase of choice was at a concentration of 0.12 mg/mL. The reactions also had 20 μmol of nucleotide, nucleotide 1 or nucleotide 2 as diagrammed, and 4 μmol of the template strand (SEQ ID No. 1) and 4 μmol of the primer strand (SEQ ID No. 2). The reaction was carried at 60° C. for 10 minutes.
(§4) Lanes 4, 7, 10, and 13 show the nucleic acids formed when nucleotide 1 was available. Lanes 5, 8, 11, and 14 show the nucleic acids formed when nucleotide 2 was available. Lanes 6, 9, 12, and […] show the nucleic acids formed when unaltered dTTP was available.

Pol 1901 = experiment: as above; assay type: biochemical, 9° N; details: Pol 1901 0.12 mg/mL, Mg2+ approximately 4 mM, 60° C. for 10 minutes
Source text: as §1, §2, §3, §4

Pol 812 = experiment: as above; assay type: biochemical, 9° N; details: Pol 812 0.12 mg/mL, Mg2+ approximately 4 mM, 60° C. for 10 minutes
Source text: as §1, §2, §3, §4

[2] = molecular target: T1, commercially available TdT (Bos taurus, UniProt P06526); experiment: Template-independent enzymatic synthesis of oligonucleotides with TdT, gel electrophoresis; assay type: biochemical; details: for nucleic acid formed from primer by TdT (extent of nucleotide addition): 5 or 10 minutes at room temperature
T1 construct: purchased
T1 sequence (P06526 whole entry): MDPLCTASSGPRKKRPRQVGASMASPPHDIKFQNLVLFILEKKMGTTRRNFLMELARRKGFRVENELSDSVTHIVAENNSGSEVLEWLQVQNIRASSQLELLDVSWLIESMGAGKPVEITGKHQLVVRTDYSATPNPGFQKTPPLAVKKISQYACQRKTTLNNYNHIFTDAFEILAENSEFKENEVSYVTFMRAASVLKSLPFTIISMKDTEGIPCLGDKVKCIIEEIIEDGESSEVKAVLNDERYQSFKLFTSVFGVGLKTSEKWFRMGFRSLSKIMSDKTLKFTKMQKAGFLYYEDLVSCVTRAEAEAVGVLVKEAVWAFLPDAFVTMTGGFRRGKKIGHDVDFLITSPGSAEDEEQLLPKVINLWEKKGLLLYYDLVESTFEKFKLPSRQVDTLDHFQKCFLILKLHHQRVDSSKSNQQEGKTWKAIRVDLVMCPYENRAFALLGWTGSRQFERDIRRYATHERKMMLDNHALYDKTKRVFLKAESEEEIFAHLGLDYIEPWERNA
Method: A preliminary test of template-independent synthesis of oligonucleotides using a commercially available TdT was conducted. A primer strand with a FAM fluorescent tag at the 5′ end (SED ID No. 2) was introduced.
Three different nucleotides were included, depending on the test condition: a 3′ vinyl blocked dTTP (“3VT”), a 3′-vinyl blocked dTTP that is pre-heated at 60° C. for 5 minutes (“HVT”), and an unaltered dTTP with 3′ hydroxy (“dT”). HVT condition was used to test the thermal stability of the nucleotide. Each nucleotide was allowed to react with the template in the presence of the TdT for 5 or 10 minutes at room temperature.
A control was run simultaneously, which included a primer with one added nucleotide. […] Without being bound to a particular theory, it is believed that the 3′ blocking group on the 3VT nucleotide prevented synthesis beyond the addition of one nucleotide.

[3] = test system: DNA polymerases Pol 812, Pol 963, Pol 1558, and Pol 1901; experiment: Template-dependent incorporation of nucleotide into primer strand by DNA polymerases, gel electrophoresis; assay type: biochemical, 9° N; details: polymerase 0.12 mg/mL, Mg2+ approximately 4 mM, 60° C. for 10 minutes, template with five A overhang
Source text: as §1, §2
For each test reaction, Mg^2+ concentration was at approximately 4 mM, while the polymerase of choice was at a concentration of 0.12 mg/mL. […]

| Structure (SMILES) | deblocking of 3′ vinyl group to 3′OH TMP over time [1] | capability of incorporating the nucleotide into the primer strand, compared among the four polymerases (Pol 1558) | capability of incorporating the nucleotide into the primer strand, compared among the four polymerases (Pol 1901) | capability of incorporating the nucleotide into the primer strand, compared among the four polymerases (Pol 812) | nucleic acid formed from primer by TdT (extent of nucleotide addition) [2] | nucleic acid formed from primer by TdT after pre-heating of the nucleotide (thermal stability) ([2]; nucleotide pre-heated at 60° C. for 5 minutes, reaction 5 or 10 minutes at room temperature) | number of nucleotides incorporated into the primer strand [3] |
| --- | --- | --- | --- | --- | --- | --- | --- |
| C=C[C@]1(O)C[C@H](n2cc(C)c(=O)[nH]c2=O)O[C@@H]1COP(=O)(O)O [3′ vinyl thymidine monophosphate (TMP), 3′ vinyl thymidine monophosphate] | all of the 3′vinyl TMP have been consumed or deblocked | – | – | – | – | – | – |
| C=CO[C@H]1C[C@H](n2cc(C)c(=O)[nH]c2=O)O[C@@H]1COP(=O)(O)OP(=O)(O)OP(=O)(O)O [nucleotide 1] | – | best performance | least capable of the four | best performance | addition of just one additional nucleotide | addition of just one additional nucleotide | – |
| Cc1cn([C@H]2C[C@H](O)[C@@H](COP(=O)(O)OP(=O)(O)OP(=O)(O)O)O2)c(=O)[nH]c1=O [unaltered dTTP, Deoxythymidine triphosphate, reference compound] | – | – | – | – | much longer nucleic acids | – | ≤ 5 |
